# Values of other authors in patent US4699782A (Delalande S.A., priority 1983, dated 1987).
# Conditions: human, in vivo; cited from earlier work
smiles,measurement,value
C#CCN(C)CCCOc1ccc(Cl)cc1Cl [Clorgyline],dose of Tyramine from which hypertensive effects were recorded,≥ 6 mg
